The results in this text go back to the METLIN SMRT retention time set (Domingo-Almenara et al. 2019).

The nature of the data set: gradient 5% acetonitrile 3 min, to 50% in 2 min, to 85% in 15 min, held 3 min, 100 µL/min. Particulars: column: Zorbax Extend-C18 2.1 x 50 mm; eluents: water / acetonitrile, 0.1% formic acid. The method in brief:
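A Zorbax Extend-C18 column (2.1 × 50 mm, 1.8 μm) run at 100 μL/min with water and acetonitrile, both containing 0.1% formic acid, separated mixtures of ~100 pure standards. The HPLC was coupled to a quadrupole time-of-flight mass spectrometer operated in positive and negative ionization mode, with dead and dwell volumes of 40 μL and 900 μL. Each retention time was taken from a computationally picked adduct peak that was then manually inspected.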
`COC(=O)c1c(C)[nH]c(C(=O)N2CCC(CC(=O)NC3CCCCC3)CC2)c1C` displayed an RP-LC retention time of 730 s.

Take `COCCNC(=O)C1CCCN(C(=O)c2[nH]c(C)c(C(=O)OC)c2C)C1` (stereo unspecified): the RP-LC retention time was 624 s.

`COc1cccc(C(=O)NCc2nn(C)c3ccccc23)c1` yielded an RP-LC retention time of 779 s.

Compound `COc1ccc(N2C=C(C#N)S(=O)(=O)c3c(F)cccc32)c(OC)c1` returned an RP-LC retention time of 893 s.

The compound `CC1CN=C2C=C(N3CCN(C(=O)Nc4ccc(C(F)(F)F)cc4)CC3)N=CN21` (stereo unspecified) gave an RP-LC retention time of 688 s.

Turning to `CCN(C(=O)c1ccc(OC)c(OC)c1)c1nc(-c2ccc(C)cc2)cs1`, the RP-LC retention time turned out to be 1200 s.

`COc1ccc(Cl)cc1NC(=O)NC1CCN(c2nc3ccccc3n(C)c2=O)CC1` registered an RP-LC retention time of 1010 s.

`Cc1cc(-c2csc(S(=O)(=O)N3CCN(CCOc4ccc(Cl)cc4)CC3)c2)on1` gave an RP-LC retention time of 760 s.

Consider `CCn1c(C(=O)NCCCN2CCOCC2)cc2c(-c3cccs3)nn(-c3ccccc3)c21`, for which the RP-LC retention time came out at 705 s.

As to `COc1ccc(OC)c(NC(=O)N(C)Cc2nc3cc(C(=O)N(C)C)ccc3n2C)c1`, the RP-LC retention time is 605 s.

Take `CCN(CC)CCCNc1ccc(-c2nc(-c3cccc(F)c3)no2)cn1`: the RP-LC retention time was determined as 707 s.

In the case of `Cc1nnc(-c2ccc3c(c2)OCO3)o1`, the RP-LC retention time was found to be 706 s.

Compound `COC(=O)c1[nH]c2c(c1C)C(=O)CC(c1ccccc1)C2` (stereo unspecified) returned an RP-LC retention time of 860 s.

`O=C(Cc1csc2nc(-c3ccccc3)cn12)NC1CCCCCC1` returned an RP-LC retention time of 808 s.

Compound `CC(C)(CO)NCc1ccc(-c2ccccc2F)o1` yielded an RP-LC retention time of 602 s.

As for `O=C(c1cc2ccccc2[nH]1)N1CCN(C(=O)c2ccc(Br)o2)CC1`, the RP-LC retention time is 797 s.

With `O=[N+]([O-])/C=C/c1cc2ccccc2[nH]1`, the RP-LC retention time worked out at 718 s.

Compound `CCOc1ccccc1NC(=O)Cn1ccc2ccc(-c3nnc(CC)o3)cc21` gave an RP-LC retention time of 928 s.

Consider `Cc1ccc(Nc2c(-c3ccc(Br)cc3)nc3cnccn23)c(Br)c1`, for which the RP-LC retention time turned out to be 1230 s.

`CCc1ccc(NC(=O)C2CCCN(S(=O)(=O)c3cc(-c4noc(CC)n4)cs3)C2)cc1` (stereo unspecified) had an RP-LC retention time of 1110 s.

`Cc1cc(=O)n(CC(=O)Nc2ccc(F)cc2Cl)c(N2CCOCC2)n1`: the RP-LC retention time stood at 672 s.

`COc1cc(OC)cc(C(=O)N2C[C@@H]3C[C@H](NC(=O)c4ccccc4)[C@H]2C3)c1` gave an RP-LC retention time of 684 s.

For the compound `CC(C)NC(=O)c1ccc(OCC2CCCN2C(=O)C(C)C)cc1` (stereo unspecified), the RP-LC retention time came out at 757 s.

For `Nc1nc(OCc2ccccc2)c2[nH]cnc2n1`, the RP-LC retention time was determined as 654 s.

Take `COCCCNC(=O)NC1CCN(c2nc3cccnc3n(Cc3ccccc3)c2=O)CC1`: the RP-LC retention time was 843 s.

As to `O=C(Cn1c(=O)n(-c2ccccc2)c2ncccc21)NC1CCN(Cc2ccccc2)CC1`, the RP-LC retention time came to 630 s.

The compound `Cc1cccc(NS(=O)(=O)c2cn(C(C)C)c3ncccc23)c1` displayed an RP-LC retention time of 892 s.

Compound `COc1ccc(N2CCN(c3cc(SCC(=O)Nc4ccc(F)cc4F)ncn3)CC2)cc1` registered an RP-LC retention time of 1050 s.

`CCc1nc2cc(-c3noc(CCc4c[nH]c5ccccc45)n3)ccc2o1` had an RP-LC retention time of 1050 s.

`COc1cc(Br)cc(CC2C(=O)Nc3ccccc32)c1OC` (stereo unspecified): the RP-LC retention time amounted to 932 s.

Regarding `CCOc1ccc(CC(=O)NCC2CCN(Cc3ccco3)CC2)cc1`, the RP-LC retention time came out at 558 s.

Turning to `O=c1ccc(-c2ccc3c(c2)OCO3)nn1CCc1nc(-c2ccc3c(c2)OCO3)no1`, the RP-LC retention time was determined as 893 s.

Take `Cc1cc(C)c(NC(=O)CN2C(=O)CC(c3cccs3)=Nc3ccccc32)c(C)c1`: the RP-LC retention time came out at 954 s.

In turn, `Cc1nn2c(CNS(=O)(=O)c3ccc(Cl)cc3)c(-c3ccccc3)nc2s1` gave an RP-LC retention time of 932 s.

Take `Cc1ccc2c(=O)c(S(=O)(=O)c3ccccc3)cn(Cc3cccc(Cl)c3)c2n1`: the RP-LC retention time was found to be 1030 s.

For the compound `CCc1ccc(Oc2cc(N3CCC(C(=O)NCCC4=CCCCC4)CC3)ncn2)cc1`, the RP-LC retention time was found to be 1150 s.

The compound `COc1ccccc1CN1C[C@@H]2C(=O)N(CCCN3CCCC3=O)C(=O)[C@@H]2C1` returned an RP-LC retention time of 586 s.

`O=C(NCC1CCCO1)c1cn(-c2ccccc2)nc1-c1ccccc1` (stereo unspecified) gave an RP-LC retention time of 916 s.

On to `CCOC(=O)c1cnc(Nc2nc(C)c3cc(C)cc(C)c3n2)nc1C`, for which the RP-LC retention time is 657 s.

Compound `CC(C)N1CCN(C(=O)c2csc(-c3ccc(N4CCCC4)nc3)n2)CC1` displayed an RP-LC retention time of 559 s.

For `O=C(Cc1ccsc1)N1CCOc2ccc(N3CCOCC3)cc2C1`, the RP-LC retention time was 743 s.

`COc1cccc(CN2CCn3c(nnc3[C@@H]3C[C@@H](O)CN3C)C2)c1OC` displayed an RP-LC retention time of 549 s.

Consider `CS(=O)(=O)N1CCOc2ccc(NC(=O)C3CC3)cc2C1`, for which the RP-LC retention time is 696 s.

`COc1ccc2[nH]c(=O)c(CCC(=O)NCc3ccco3)cc2c1` gave an RP-LC retention time of 655 s.

For the compound `CCN(CC)CCCNC(=O)CN1C(=O)C2CCCCN2c2ccc(C(=O)N(C)C)cc21` (stereo unspecified), the RP-LC retention time was determined as 595 s.

On to `O=C(CSc1nnnn1-c1ccccc1)Nc1ncc(Cc2ccccc2Cl)s1`, for which the RP-LC retention time worked out at 946 s.

As for `O=C(c1ccc2ncccc2c1)N1C[C@@H](CO)[C@H](c2ccccn2)C1`, the RP-LC retention time was 543 s.

On to `CCc1nc2c(NC(=O)c3ccc(C)c(C)c3)cccn2n1`, for which the RP-LC retention time amounted to 922 s.

As for `COc1ccc(NC(=O)CSc2nc3ccccc3o2)c(OC)c1`, the RP-LC retention time was found to be 896 s.

Turning to `CC(C)CN1CCN(C(=O)c2ccc(-c3cccs3)nc2)CC1`, the RP-LC retention time turned out to be 602 s.

Turning to `COc1ccccc1NC(=O)CC(=O)Nc1ccc2nc3n(c(=O)c2c1)CCCCC3`, the RP-LC retention time was 742 s.

`Cc1nc(-c2cc(S(=O)(=O)N(C)C3CCCCC3)c(C)s2)sc1C` had an RP-LC retention time of 1320 s.

`O=S(=O)(c1ccc(F)cc1)N1CCc2nc(-c3ccccc3)ncc2C1` returned an RP-LC retention time of 1040 s.

As to `CC(CNC(=O)c1cc2c(s1)CN(C1CC1)C2)c1ccccc1` (stereo unspecified), the RP-LC retention time stood at 731 s.

The compound `CCOC(=O)c1c(C)[nH]c(C)c1S(=O)(=O)N1CCC(C(=O)Nc2ccc(C)c(N(C)C)c2)CC1` yielded an RP-LC retention time of 616 s.

As for `CN(CCc1noc(-c2ccccc2)n1)C(=O)Nc1ccccc1Cl`, the RP-LC retention time amounted to 943 s.

`Cc1cc(C)n(-c2ncnc3c2cnn3-c2ccc(F)cc2)n1` registered an RP-LC retention time of 1420 s.

Take `CN1CCCn2nc(C3CCN(C(=O)Nc4cccc(C#N)c4)CC3)cc2C1=O`: the RP-LC retention time came out at 656 s.

Consider `Cc1ccc(C)c(CNS(=O)(=O)c2c(C)sc(C)c2-c2n[nH]c(C)c2C)c1`, for which the RP-LC retention time is 1150 s.

For `Cc1ccc(NC(=O)C2CCCN(c3ccc4cc(S(=O)(=O)N5CCCCC5)ccc4n3)C2)cc1` (stereo unspecified), the RP-LC retention time was 917 s.

`CCc1ccccc1NS(=O)(=O)c1cn(CC(C)C)c2ncccc12` displayed an RP-LC retention time of 1050 s.

Regarding `COC(=O)c1cnc2nc(C)ccc2c1Nc1cc(F)ccc1F`, the RP-LC retention time was 669 s.

`O=C([C@@H]1C[C@H](F)CN1C(=O)c1ccc(F)cc1)N1CCCCC1` showed an RP-LC retention time of 684 s.

`O=C(c1ccc2ccccc2n1)N1CC(n2ccnc2)C1` returned an RP-LC retention time of 604 s.

`O=C(CCn1cnc2cc(-c3noc(CCc4c[nH]c5ccccc45)n3)ccc21)N1CCCC1` gave an RP-LC retention time of 734 s.

For `COc1ccccc1OCC(=O)N1CCN(c2cc(C(C)C)n3cnnc3n2)CC1`, the RP-LC retention time came to 626 s.

Compound `O=C(Nc1cccc(Cl)c1)C1CCCN(S(=O)(=O)Cc2ccccc2)C1` (stereo unspecified) yielded an RP-LC retention time of 1030 s.

Compound `O=C(c1ccc(Cl)cc1)N1CCN(c2cc(-c3ccc(Cl)cc3)[nH]n2)CC1` had an RP-LC retention time of 936 s.

Consider `O=c1c2cc(-c3ccc(Cl)cc3)nn2ccn1Cc1ccc(F)cc1`, for which the RP-LC retention time amounted to 1120 s.

Compound `Cc1cccc(CNC(=O)C2CCCN(c3ccc(=O)n(-c4ccc(C)c(Cl)c4)n3)C2)c1` (stereo unspecified) registered an RP-LC retention time of 984 s.

Consider `CC(C)NC(=O)c1ccc(OCC2CCCN(C(=O)Cc3ccccc3F)C2)cc1` (stereo unspecified), for which the RP-LC retention time was determined as 875 s.

The compound `O=C(NCCc1c[nH]c2ccccc12)c1cn(-c2ccc(F)cc2)nn1` came in with an RP-LC retention time of 898 s.

`Cc1c(N2CCC(C(=O)NCC3CCCO3)CC2)c(=O)n(CC(C)C)c(=O)n1-c1ccccc1` (stereo unspecified) had an RP-LC retention time of 832 s.

`CC(C)C(=O)N1CC(c2nc(-c3ccc(F)cc3)no2)C2(CCOCC2)C1` (stereo unspecified): the RP-LC retention time stood at 857 s.

In turn, `O=C(Cn1ccc2ccn(Cc3ccccc3)c2c1=O)NCc1cccs1` returned an RP-LC retention time of 872 s.

The compound `Cc1ccccc1NS(=O)(=O)c1c[nH]c2ncccc12` returned an RP-LC retention time of 728 s.

For the compound `O=C(c1ccsc1)N1CCN(c2cc(-c3ccccc3)[nH]n2)CC1`, the RP-LC retention time amounted to 730 s.

Compound `O=C(Nc1cc(-c2ccccn2)no1)c1ccoc1` came in with an RP-LC retention time of 713 s.

As to `O=C(CN1CCN(Cc2ccccc2)C1=O)NCc1cccc(F)c1`, the RP-LC retention time was 761 s.

For the compound `O=C(CCC(=O)N1CC2CCCN2c2ccccc21)NCCN1CCOCC1` (stereo unspecified), the RP-LC retention time is 620 s.

On to `NC(=O)CSc1nnnn1-c1ccccc1`, for which the RP-LC retention time stood at 590 s.
